Values of other authors as cited in patent publication US20170326166A1, “COMPOSITIONS AND METHODS FOR TREATING PITUITARY TUMORS” (University of Virginia Patent Foundation, priority 2014, published 2017).

Tests used:
cancer cells [1] = settings: in cancer cells; trapped in the cytosol
cancer cells [2] = settings: cancer cells compared to their normal counterpart cells or other normal cells

SMILES | intracellular half-life (cancer cells [1]) | accumulation in cells (cancer cells [2])
O=CC[C@@H](O)[C@H](O)[C@H](O)COP(=O)(O)O [2-deoxyglucose 6-phosphate] | approximately 50 minutes | –
O=CC[C@@H](O)[C@H](O)[C@H](O)CO [2DG, 2-Deoxy-D-glucose] | – | accumulates predominantly in cancer cells
